US20160206637A1, “Effects of Alpha-Glycerophosphocholine Versus Caffeine in Measures of Cognitive, Psychological and Physiological Functions” (priority 2015, published 2016)

Tests used:
[1] = tested on: recreationally active participants; test: Serial subtraction test (SST) of cognitive function; format: in vivo, human; settings: 30 minutes after supplementation; for SST score (average time per correct calculation): 200 mg oral, crossover, 20 participants
Source text: Following supplementation, participants performed all non-fatiguing tests first.

[2] = tested on: recreationally active participants; test: Visual analog scale (VAS) for jitteriness; settings: 200 mg caffeine; compared to αGPC-H (400 mg), but not αGPC-L or PL; 30 minutes after supplementation
Method: (§1) Upon arrival to the Human Performance Laboratory at Angelo State University on each of the 4 testing sessions, participants were provided with a sample of the supplement. Participants were assigned to consume a placebo, 200 mg of caffeine, 200 mg of α-GPC, and 400 mg of α-GPC in a randomized, double-blind, placebo controlled, cross-over manner. After consuming the supplement, participants waited 30 minutes before completing the testing protocol. All participants were advised that they should not have had anything to eat or drink, except for water, in the previous 8 hours. Additionally, participants were asked to refrain from consuming any food or beverages that contain caffeine or other stimulants for at least 24 hours prior to completing the testing sessions.
(§2) Twenty participants (10 males, 10 females; 22.0±3.4 years of age; height 171.9±7.4 cm; weight 56.8±8.6 kg) consumed 200 mg of αGPC (αGPC-L, Alpha-Size®, Chemi Nutra, Austin, Tex. USA), 400 mg of Alpha-GPC (αGPC-H), 200 mg of caffeine (CA), and a placebo (PL) in a randomized, double-blind, placebo-controlled, crossover design. Participants performed the following measurements 30 minutes after supplementation: visual analog scales (VAS) for six different moods, a serial subtraction test (SST), and tests for reaction time, hand-eye coordination, power, speed and agility.

[3] = tested on: recreationally active participants; test: Vertical jump test, peak power (Tendo Unit); format: in vivo, human; settings: 30 minutes after supplementation
Method: Participants were scored by the total number of successful catches. Following the non-fatiguing tests, the participants performed a standardized warm-up in which they walked on a treadmill for 5 minutes at 3 miles per hour. Following the warm-up, participants performed the fatiguing tests which included vertical jump, broad jump, 40 yard dash, and the pro-agility shuttle. […] Participants then performed three attempts for the standing broad jump. Maximum broad jump distance was recorded. Lastly, participants performed one 40 yard dash and one pro-agility shuttle (5-10-5 drill) on an indoor, wooden gymnasium floor. Times was measured by hand and recorded.
as §1, §2

[4] = tested on: healthy, college-aged males; test: Isometric mid-thigh pull (IMTP) peak force; format: in vivo, human
Method: (§3) The Institutional Review Board at the University of Louisiana at Lafayette reviewed the present investigation for ethics. The study was a double-blind, placebo-controlled crossover with a 1-week washout period that included 13 healthy, college-aged males (Means±SD; Age: 21.9±2.2 years, Height: 180.3±7.7 cm; Weight: 87.6±15.6 kg, VO2 max: 40.08±7.23 ml O2*kg^−1; body fat: 17.5±4.6%). Subjects reported to the lab and give informed consent, which included consent to publish, prior to baseline assessments, which included height and weight, an assessment of maximum aerobic capacity via a COSMED CPET system (COSMED, Rome ITL) with integrated electronically braked cycle ergometer as outlined in previous studies incorporated herein by reference (5) and body fat percentage via air displacement plethysmography (Bod Pod Gold Standard System, COSMED Rome, ITL). The following week trial one (random order: either placebo or 600 mg of αGPC) began. For the trials baseline performance testing was done and they were given an initial dose (placebo or α-GPC) while in the lab, 1 h later the performance testing (isometric mid-thigh pull, upper body isometric test) was repeated. The subjects were then given 6 days of additional pre-packaged supplement to take (morning and evening). The subjects reported back on day 6 of this period to repeat performance testing after the final dose of supplement. After a 1-week washout period, the subjects repeated the trial with the other treatment (see FIG. 4).
The treatments consisted of 600 mg daily of α-GPC (Alphasize®, ChemiNutra, Austin Tex.) or a placebo. Both treatments were administered in the same capsules (gel caps) and were the same color (white). The α-GPC capsules were supplied with a certificate of analysis from a third party lab confirming the amount of active ingredient. The placebo capsule consisted of microcrystalline cellulose and magnesium stearate (Nature's Supplements, Carlsbad, Calif. USA). Both the participant and researcher were unaware of the identity of either treatment until the end of the study. […]
The isometric mid-thigh pull test (IMTP) is a well validated strength measure (Beckman, G, et al. “Relationship of isometric mid-thigh pull variables to weightlifting performance.” J. Sports Med. Phys Fitness 2010; 35:573-81). […] The height of the bar was adjusted so that the participant was in a position where the torso was upright (assessed via a contractors box level), the knees achieved between 120-130° of flexion (measured via a goniometer) and the arms were straight while holding the bar. […] The peak force was assessed at a sampling rate of 2000 Hz using an AMT1 Force Plate. […]
(§4) Reliability was assessed for the isometric tests via Intra Class Correlation Coefficients (ICC). […]

[5] = tested on: healthy, college-aged males; test: Upper body isometric test (UBIST) peak force; format: in vivo, human; settings: 600 mg daily
Method: as §3, with “4). […]” for “4).”
The participants were positioned on three elevated platforms with the chest directly suspended over a load cell anchored into the concrete floor of the lab (iLoad Pro, Loadstar Sensors, Fremont Calif.). […] The participants were placed in a push-up style position, with the hands at 150% of biacromial width, and the elbows at 90° of extension (measured via a goniometer). […] The load cell was set to capture data at maximum rate (150 Hz) and the data was exported and analyzed in JMP 11.0 (SAS Institute Inc, Ca1y NC). […]
as §4

For `Cn1c(=O)c2c(ncn2C)n(C)c1=O` [CA, caffeine], the “SST score (average time per correct calculation)” value [1] was 7.32 ± 5.67 s, the “scores on the VAS for jitteriness” value [2] was “significantly higher” and the “Vertical Jump Peak Power” value ([3]; 200 mg oral) was 1,920.4±689.6 W. For the same molecule, the “Vertical Jump Peak Power higher in comparison to PL” value (from here on “Vertical Jump Peak Power higher”) ([3]; 200 mg oral) was 2.0%.
In the case of α-Glycerophosphocholine [αGPC], the “magnitude based inference: likely beneficial for increasing lower body isometric force production” value ([4]; 600 mg daily, 6 days) is reported as 86.5%, the “IMTP effect size (ES, Cohen's d), treatment by time” value ([4]; 600 mg daily, day 6, vs placebo) is reported as 0.961 and the “IMTP performance, acute treatment effect (repeated measures Anova)” value ([4]; 1 h after the initial dose, vs placebo) is reported as “did not reveal any main effects”. For the same molecule, the “increase in lower body isometric strength” value ([4]; 6 days of supplementation, 600 mg daily) was > 3%, the “magnitude based inference: likely beneficial for increasing upper body isometric force” value ([5]; 6 days) was 68.3% and the “UBIST force production, change from baseline” value ([5]; baseline to day 6) was 50.9±167.2 N. For the same molecule, the “UBIST effect size (ES, Cohen's d), treatment by time” value ([5]; day 6, vs placebo) was 0.714, the “SST score (average time per correct calculation)” value [1] was 6.19 ± 2.21 s and the “SST scores faster compared to CA” value ([1]; 200 mg αGPC (αGPC-L) vs 200 mg caffeine) was 18.1%. The “SST scores faster compared to PL” value ([1]; 200 mg αGPC (αGPC-L) vs placebo) was 10.5%, the “Vertical Jump Peak Power” value ([3]; 200 mg oral) was 2,041.3±547.2 W and the “Vertical Jump Peak Power higher” value ([3]; 200 mg oral) was 8.5%. The “Vertical Jump Peak Power” value ([3]; 400 mg oral (αGPC-H)) was 2,023.1±942.8 W and the “Vertical Jump Peak Power higher” value ([3]; 400 mg oral (αGPC-H)) was 7.5%.
